Results reported in ChEMBL document CHEMBL1201862, “PubChem BioAssay data set” (2004).
Activity calls are given as the source filed them.

Columns and labels:
Nonstructural protein 1 = Nonstructural protein 1 (Influenza A virus, UniProt Q194T2); type: functional, Influenza A virus (A/California/07/2009(H1N1))
[1] = target: Heat shock protein HSP 90-alpha (Homo sapiens, UniProt P07900); type: functional, organism-based
[2] = HIV-1 AD8 envelope cell-cell fusion blockers – cherry-pick, dose response (AID 652062); type: functional, cell-based;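 note: luciferase signal from cell-cell fusion driven by HIV-1 clade B AD8 Env; potency is for inhibitors of fusion seen as a drop in luminescence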
[3] = blockers of HIV-1 ZM109 envelope-driven cell-cell fusion – HeLa effector, CEM target cells, luciferase, cherry-pick, dose response (AID 652058); type: functional, cell-based;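 note: luciferase signal from HIV-1 Env mediated cell-cell fusion of effector and target cells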
[4] = blockers of HIV-1 envelope-mediated cell-cell fusion – cherry-pick, dose response (AID 652057); type: functional, cell-based
[5] = off-target signal loss in HeLa-CEM21 co-culture – HeLa F-luc CTL cells, cherry-picked, counter-screen for HIV-1 Env fusion inhibitor project, dose response (AID 652040); type: functional, cell-based;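 note: potency for signal decrease marking cytotoxic or nonspecific inhibition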
[6] = target: T1, DNA repair protein RAD52 homolog (Homo sapiens, UniProt P43351); type: functional, biochemical
T1 sequence (P43351 whole entry): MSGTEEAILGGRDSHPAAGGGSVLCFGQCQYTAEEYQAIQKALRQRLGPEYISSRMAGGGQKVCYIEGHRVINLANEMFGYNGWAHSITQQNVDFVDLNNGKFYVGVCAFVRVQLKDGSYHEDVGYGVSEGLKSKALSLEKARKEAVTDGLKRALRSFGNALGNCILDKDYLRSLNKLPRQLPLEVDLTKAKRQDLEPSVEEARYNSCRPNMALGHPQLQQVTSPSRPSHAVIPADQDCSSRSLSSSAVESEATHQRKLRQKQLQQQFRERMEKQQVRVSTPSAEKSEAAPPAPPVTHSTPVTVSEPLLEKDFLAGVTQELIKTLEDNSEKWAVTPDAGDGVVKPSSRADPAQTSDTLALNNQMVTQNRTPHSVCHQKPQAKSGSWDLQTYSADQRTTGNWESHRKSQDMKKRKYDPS

Large T antigen = Large T antigen (Simian virus 40, UniProt P03070); type: functional, Betapolyomavirus macacae;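 note: Confirmatory-stage PubChem screen for compounds that inhibit SV40 T antigen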
[7] = P. falciparum Dd2 growth inhibitors, dose response, SYBR Green, cherry-picked samples (AID 1159567); type: functional, cell-based
[8] = target: T2, DNA repair and recombination protein RAD54-like (Homo sapiens, UniProt Q92698); experiment: RAD54 Holliday junction migration blockers – biochemical, fluorescence, cherry-picked samples, dose series, confirmation (AID 651657); type: functional
T2 sequence (Q92698 whole entry): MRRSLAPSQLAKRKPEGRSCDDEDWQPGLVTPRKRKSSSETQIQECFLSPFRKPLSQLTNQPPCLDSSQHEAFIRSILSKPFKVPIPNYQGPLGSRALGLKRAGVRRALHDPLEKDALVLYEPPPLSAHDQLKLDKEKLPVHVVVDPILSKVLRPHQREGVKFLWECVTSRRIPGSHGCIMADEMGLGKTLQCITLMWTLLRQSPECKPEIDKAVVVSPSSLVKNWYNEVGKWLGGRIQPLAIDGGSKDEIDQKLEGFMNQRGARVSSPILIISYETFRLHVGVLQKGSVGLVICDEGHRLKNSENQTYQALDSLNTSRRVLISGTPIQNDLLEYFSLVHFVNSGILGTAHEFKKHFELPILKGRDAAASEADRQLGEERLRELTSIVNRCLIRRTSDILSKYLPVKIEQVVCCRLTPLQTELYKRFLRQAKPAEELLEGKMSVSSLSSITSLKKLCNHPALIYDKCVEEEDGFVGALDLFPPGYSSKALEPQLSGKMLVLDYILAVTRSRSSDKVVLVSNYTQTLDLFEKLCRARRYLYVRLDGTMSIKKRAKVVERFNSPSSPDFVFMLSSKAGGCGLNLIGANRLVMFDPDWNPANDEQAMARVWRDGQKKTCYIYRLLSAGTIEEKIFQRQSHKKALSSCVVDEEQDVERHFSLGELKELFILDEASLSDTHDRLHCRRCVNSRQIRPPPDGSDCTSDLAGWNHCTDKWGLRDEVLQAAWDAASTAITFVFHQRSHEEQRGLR

Protein skinhead-1 = target: T3, Protein skinhead-1 (Caenorhabditis elegans, UniProt P34707); type: functional
T3 sequence (P34707 whole entry): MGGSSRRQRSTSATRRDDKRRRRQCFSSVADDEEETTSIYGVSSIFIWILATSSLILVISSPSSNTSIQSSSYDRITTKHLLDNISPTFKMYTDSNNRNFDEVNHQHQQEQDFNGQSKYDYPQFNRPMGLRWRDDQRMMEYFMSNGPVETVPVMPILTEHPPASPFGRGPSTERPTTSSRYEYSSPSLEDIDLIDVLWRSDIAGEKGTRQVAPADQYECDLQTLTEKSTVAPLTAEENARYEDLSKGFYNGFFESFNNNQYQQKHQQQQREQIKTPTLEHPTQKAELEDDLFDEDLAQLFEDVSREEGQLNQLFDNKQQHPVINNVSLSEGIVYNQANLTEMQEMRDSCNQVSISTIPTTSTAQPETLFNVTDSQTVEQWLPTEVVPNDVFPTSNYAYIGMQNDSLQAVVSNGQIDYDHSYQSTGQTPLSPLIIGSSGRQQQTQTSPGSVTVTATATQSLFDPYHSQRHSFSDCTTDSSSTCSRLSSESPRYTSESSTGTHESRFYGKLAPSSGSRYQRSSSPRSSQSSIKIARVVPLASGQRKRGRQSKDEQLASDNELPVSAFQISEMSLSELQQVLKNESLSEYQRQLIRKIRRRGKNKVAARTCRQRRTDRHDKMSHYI

[9] = target: T4, Short transient receptor potential channel 4 (Mus musculus, UniProt Q9QUQ5); experiment: block of DAMGO-driven TRPC4 calcium entry – cell-based, HEK293 TRPC4/mu-opioid, Fluo-4 calcium, dose response (AID 434942); type: functional;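 note: potency of inhibitors blocking the TRPC4 calcium response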
T4 sequence (Q9QUQ5 whole entry): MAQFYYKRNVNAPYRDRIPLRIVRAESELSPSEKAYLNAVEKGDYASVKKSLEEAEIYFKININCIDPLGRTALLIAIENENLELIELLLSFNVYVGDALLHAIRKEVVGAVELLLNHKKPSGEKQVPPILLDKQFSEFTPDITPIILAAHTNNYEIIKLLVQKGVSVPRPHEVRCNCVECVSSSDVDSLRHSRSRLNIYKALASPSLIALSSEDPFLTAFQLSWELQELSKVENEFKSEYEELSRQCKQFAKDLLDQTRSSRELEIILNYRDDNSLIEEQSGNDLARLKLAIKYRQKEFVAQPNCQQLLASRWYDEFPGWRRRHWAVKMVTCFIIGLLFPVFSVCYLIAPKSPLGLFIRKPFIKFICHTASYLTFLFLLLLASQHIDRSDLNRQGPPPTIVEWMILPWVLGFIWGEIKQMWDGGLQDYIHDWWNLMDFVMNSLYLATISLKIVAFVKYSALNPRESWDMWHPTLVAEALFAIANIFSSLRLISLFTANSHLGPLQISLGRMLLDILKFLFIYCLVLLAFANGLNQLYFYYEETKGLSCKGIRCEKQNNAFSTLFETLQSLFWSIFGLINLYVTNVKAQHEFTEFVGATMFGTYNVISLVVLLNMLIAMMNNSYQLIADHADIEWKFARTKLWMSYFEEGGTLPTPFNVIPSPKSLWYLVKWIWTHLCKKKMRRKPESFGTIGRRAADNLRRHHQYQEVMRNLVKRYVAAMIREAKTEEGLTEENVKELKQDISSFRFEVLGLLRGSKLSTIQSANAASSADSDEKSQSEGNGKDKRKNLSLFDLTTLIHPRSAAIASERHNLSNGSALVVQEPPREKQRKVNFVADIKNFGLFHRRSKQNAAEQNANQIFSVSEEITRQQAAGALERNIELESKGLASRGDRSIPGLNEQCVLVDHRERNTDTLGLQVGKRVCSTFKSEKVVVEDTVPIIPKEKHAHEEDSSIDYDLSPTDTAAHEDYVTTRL

INS1 = experiment: INS-1E survival protection against cytokine death – cell-based, luminescence, retest, dose response (AID 449756); type: functional; conditions: Rattus norvegicus;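 note: cell death triggered by IL-1 beta plus TNF-alpha plus IFN-gamma mixture; protective hits raise ATP signal compared with cytokine alone wells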
[10] = target: T5, Ubiquitin-conjugating enzyme E2 N (Homo sapiens, UniProt P61088); type: functional;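 note: Dose-response confirmation in a TR-FRET assay detecting UBC13-driven polyubiquitin chain formation, inhibition measured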
T5 sequence (P61088 whole entry): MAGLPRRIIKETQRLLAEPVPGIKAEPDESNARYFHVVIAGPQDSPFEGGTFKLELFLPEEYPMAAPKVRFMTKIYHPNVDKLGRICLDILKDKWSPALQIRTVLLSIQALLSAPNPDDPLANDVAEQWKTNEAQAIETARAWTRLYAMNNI

Chain of Nonstructural protein 1 (Q194T2 whole entry): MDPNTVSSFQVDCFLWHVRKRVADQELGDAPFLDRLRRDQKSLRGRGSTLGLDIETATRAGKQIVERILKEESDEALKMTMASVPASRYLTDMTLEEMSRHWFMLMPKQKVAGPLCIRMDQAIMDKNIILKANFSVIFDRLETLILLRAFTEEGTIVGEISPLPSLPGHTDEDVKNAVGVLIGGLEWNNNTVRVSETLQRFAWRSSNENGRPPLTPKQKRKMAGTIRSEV
Chain of Large T antigen (P03070 whole entry): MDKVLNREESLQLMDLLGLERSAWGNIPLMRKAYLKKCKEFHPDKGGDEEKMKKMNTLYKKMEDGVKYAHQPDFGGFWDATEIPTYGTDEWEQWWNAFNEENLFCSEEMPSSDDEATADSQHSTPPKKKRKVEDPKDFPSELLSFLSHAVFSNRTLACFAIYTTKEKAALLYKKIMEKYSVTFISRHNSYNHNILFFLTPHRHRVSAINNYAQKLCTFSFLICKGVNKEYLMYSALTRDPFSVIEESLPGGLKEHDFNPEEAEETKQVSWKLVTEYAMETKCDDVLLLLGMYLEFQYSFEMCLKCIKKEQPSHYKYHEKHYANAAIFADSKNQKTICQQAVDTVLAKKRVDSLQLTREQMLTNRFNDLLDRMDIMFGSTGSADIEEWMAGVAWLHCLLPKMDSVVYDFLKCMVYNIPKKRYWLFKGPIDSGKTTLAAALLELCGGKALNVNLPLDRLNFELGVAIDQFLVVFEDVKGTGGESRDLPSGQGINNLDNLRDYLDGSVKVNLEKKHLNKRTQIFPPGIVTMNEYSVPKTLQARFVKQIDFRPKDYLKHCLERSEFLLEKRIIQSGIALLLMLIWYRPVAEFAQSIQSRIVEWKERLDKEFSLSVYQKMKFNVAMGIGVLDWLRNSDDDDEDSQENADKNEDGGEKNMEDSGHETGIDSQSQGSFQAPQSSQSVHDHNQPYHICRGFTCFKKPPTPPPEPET

Compound: CCOc1ccccc1-c1c2cc(O)c(=O)cc-2oc2cc(O)c(O)cc12
- IC50 (Nonstructural protein 1): 28.1 µM (active)
- AC50 [1]: 6.24 µM (active)

Compound: CCN(C[C@H]1N[C@@](C)(C(=O)OC)[C@H]2C(=O)N(Cc3ccccc3)C(=O)[C@@H]12)C(=O)Nc1ccccc1
- AC50 [2]: 2.56 µM (active)
- AC50 [3]: 2.42 µM (active)
- AC50 [4]: 2.92 µM (active)
- AC50 [5]: 3.81 µM (active)

Compound: COc1cc2c(cc1OC)-c1cc3ccc(OC)c(OC)c3c[n+]1CC2 [PALMATINE CHLORIDE]
- AC50 [6]: 5.19 µM (active)

Compound: CN1CCc2ccccc2Cc2[nH]c3ccccc3c2CC1
- AC50 [3]: 8.06 µM (active)
- AC50 [4]: 25.6 µM (active)
- AC50 [5]: > 70 µM (inactive)

Compound: O=C(NN=Cc1cccc([N+](=O)[O-])c1)c1cc[n+](CCO)cc1
- AC50 [6]: 14.1 µM (active)

Compound: CN1CCN(c2nc(Nc3ccc(O)cc3)nc3ccccc23)CC1
- AC50 [6]: 5.21 µM (active)
- IC50 (Large T antigen): 8.58 µM (active)

Compound: CN1c2ccc(-c3ccccc3)cc2[C@@H]2[C@@H](CCN2C(=O)c2ccccc2)[C@H]1CO
- AC50 [7]: 8.29 µM (active)

Compound: O=C(CSc1n[nH]c(-c2ccccn2)n1)Nc1ccccc1F
- IC50 (Nonstructural protein 1): 7.23 µM (active)

Compound: CCOC(=O)c1cnc2c(C)cccc2c1NCCCN1CCOCC1
- AC50 [8]: 16.6 µM (active)

Compound: CC(=O)N1/C(=C/c2ccc(N(C)C)cc2)C(=O)c2ccccc21
- IC50 (Protein skinhead-1): 76.9 µM (inactive)
- IC50 (Nonstructural protein 1): 16.7 µM (active)

Compound: CN1CCN(c2cc(N3CCNCC3)ccc2[N+](=O)[O-])CC1
- AC50 [8]: 14.5 µM (active)

Compound: Clc1ccc(-c2csc3ncnc(NCCN4CCOCC4)c23)cc1
- EC50 [9]: 3.35 µM (active)
- AC50 [2]: 18.1 µM (active)
- AC50 [3]: 2.24 µM (active)
- AC50 [4]: 3.74 µM (active)
- AC50 [5]: > 70 µM (inactive)

Compound: COc1ccc(Nc2cc(C)nc3ccc(OC)cc23)cc1
- AC50 [6]: 15 µM (active)
- EC50 [9]: 4.73 µM (active)
- AC50 [8]: 20.5 µM (active)

Compound: O=C(C[C@H]1CC[C@@H]2[C@H](COC[C@H](O)CN2Cc2cc(F)ccc2F)O1)N[C@@H]1CCN(Cc2ccccc2)C1
- AC50 [7]: 7.42 µM (active)

Compound: CN(C)CCNC(=O)c1cccc(-c2cnc3c(NC=O)cc(-c4ccc(S(C)(=O)=O)cc4)cn23)c1
- AC50 [6]: 5.29 µM (active)
- AC50 [8]: 24.1 µM (active)

Compound: Nc1nonc1-n1nnc(C(=O)N/N=C/c2ccccc2O)c1CN1CCCC1
- IC50 (Nonstructural protein 1): 11.4 µM (active)
- AC50 (INS1): 5.79 µM (active)

Compound: CN(C)c1ccc(NC(=O)CN2CCC(NC(=O)C3CCCCC3)CC2)cc1
- AC50 [6]: 14.8 µM (active)
- IC50 [10]: > 20 µM (inactive)
